Source: patent publication US11666547B2, “Methods for treating cognitive deficits in a subject having schizophrenia, bipolar disorder, or psychiatric depression, and exhibiting cognitive deficits by administering an antagonist of the Na+-K+-2Cl-cation-chloride cotransporter isoform 1 (NKCC1)” (NORTHWESTERN UNIVERSITY, priority 2019, dated 2023)

Assays:
[1] = tested on: pyramidal neurons of the infralimbic cortex (ILC) of scPCP mice; assay: GABAA reversal potential (EGABA), perforated patch recordings in acute mPFC slices; format: cell-based; settings: bumetanide 0.3 mg/kg ip 30-40 min before dissection, 10 uM perfused into mPFC slice in incubation and recording chambers
Procedure: FIG. 4. (A) Left Panels: Example traces of GABAA current response by electrical stimulation in mPFC pyramidal neurons in control (top panel, black) and in scPCP (bottom, red). Bipolar electrode was put in layer 1, 100-200 um apart from recording site within layer2/3 with presence of 3 mM kynurenic acid to block any glutamatergic synaptic currents. The response was evoked by the same size of single stimulus (0.2-1 mA, 0.2 ms) at five different holding voltages (−100, −80, −60, −40, −20 mV) for each neuron. For each voltage, a neuron was tested multiple times and those 5-10 traces tested at the same voltage were averaged later for peak analysis. […] Right Panels: Example GABAA reversal potential (EGABA) of a neuron in control (top panel, black) and in scPCP (bottom, red) calculated from traces shown in (A). For the individual neuron, the peak size of current responses was measured (maximal current peak if the evoked response is positive while minimal current peak if negative) and plotted by holding voltages. […] Dotted gray lines to present average resting potentials for each group, which were measured by whole-cell patch recordings from separated neuron groups (each n>7). […] Dotted gray lines represent the resting potentials, which were measured by whole-cell patch recordings in different sets of experiment (each n>7). […]

[2] = tested on: 16p11.2DUP mice; assay: Y maze in 16p11.2 duplication mouse model; format: in vivo; settings: 0.1 mg/kg, ip, p<0.001
Excerpt: (§1) (See Yamasaki et al., “Alpha-CaMKII deficiency causes immature dentate gyrus, a novel candidate endophenotype of psychiatric disorders,” Molecular Brain, 1 (2008) 6; and McCarthy et al., “Microduplications of 16p11.2 are associated with schizophrenia,” Nat. Gene., 41 (2009) 1223-1227; respectively). Both models are relevant to human conditions. CaMK2A loss causes cognitive dysfunction and has been implication in psychiatric disorders including schizophrenia. (See Yamasaki et al., “Alpha-CaMKII deficiency causes immature dentate gyrus, a novel candidate endophenotype of psychiatric disorders,” Molecular Brain, 1 (2008) 6; Kool et al., “CAMK2-dependent Signaling in Neurons is Essential for Survival,” J. Neuroscience: the official journal of the Society for Neuroscience, 39 (2019) 5424-5439; and Papaleo et al., “Mouse models of genetic effects on cognition: relevance to schizophrenia,” Neuropharmacology, 62 (2012) 1204-1220). […] (See Niarchou et al., “Psychiatric disorders in children with 16p11.2 deletion and duplication,” Translational psychiatry, 9 (2019) 8). […] (FIG. 9).

[3] = tested on: scPCP mice; assay: Novel object recognition (NOR) test in subchronic phencyclidine (scPCP) mice; format: in vivo, C57BL/6J mice; settings: for Discrimination index, novel object recognition (rescue of scPCP-induced NOR deficit): male C57BL/6J mice
Procedure: FIG. 7. Bumetanide treatment rescues the cognitive impairment in scPCP mice. Discrimination index calculated from novel object recognition tests. […] 10 mice were measured for each experimental group.
FIG. 8. Bumetanide rescues Novel Object Recognition task in female scPCP mice. […] Data are from 9 mice per group. One-way ANOVA followed by post-hoc bonferroni correction was done where significance was observed. p<0.01. (Additional data not shown).
To begin filling this gap, here we took advantage of the subchronic phencyclidine (scPCP) treatment, which is a well-established established rodent model of cognitive deficits in schizophrenia (Jentsch and Roth, 1999; Steeds et al. 2015) and performed patch clamp recordings from pyramidal neurons in acute slices of the IL cortex (ILC) and PL cortex (PLC). (FIG. 1).
Routine for mPFC recording. 3 week-old mice were injected with saline (vehicle) or PCP (0.1 mg/kg) two times a day for 7 consecutive days and rested for another 7 days without injections. They were then sacrificed for recordings within 7 days.

[4] = tested on: CaMK2A+/- mice; format: in vivo; settings: for Discrimination index, rescue of NOR deficit, single agent at the dose used in the combination: CaMKIIα+/- mice, agent alone
Excerpt: as §1

[5] = tested on: PCP model of cognitive impairment; assay: Prevention of development of cognitive impairment, given prior to PCP treatment; format: in vivo, mice; settings: given prior to one week's treatment with PCP
Excerpt: Bumetanide prevented the development of cognitive impairment when give prior to one weeks treatment with PCP. This is evidence that bumetanide could prevent the onset of cognitive impairment in schizophrenia and bipolar disorder. […] The discovery of these synergistic actions which will have value in the treatment of many neuropsychiatric disorders. Neurosteroids such as allopregnanolone is a GABA A agonist which could be used clinically with bumetanide to treat post-partum depression, other forms of depression.

[6] = tested on: scPCP-treated mice subjected to chronic unpredictable stress; assay: Memory deficit in scPCP-treated mice subjected to chronic unpredictable stress (CUS); format: in vivo; settings: chronic unpredictable stress 21 days, 0.1 mg/kg
Excerpt: Bumetanide acts by blocking the NKCC1 cation-chloride cotransporter and causes the reversal potential of the GABAA-mediated current to become more hyperpolarized (thus the inhibitory effect becomes stronger). […] Most importantly, in-vivo administration of bumetanide rescues cognitive function in PCP mice and also prevents enduring deficit of cognitive function.

[7] = tested on: CaMK2A+/- mice; assay: Y maze in CaMK2A+/- mouse model; format: in vivo; settings: 0.1 mg/kg, ip, p<0.001
Excerpt: as §1

[8] = tested on: scPCP-treated mice; assay: PCP- and amphetamine-induced increase in locomotor activity in scPCP-treated mice; format: in vivo; settings: bumetanide 0.3 mg/ml, icy
Excerpt: This can be interpreted as evidence for ability to treat delusions and hallucinations in psychotic disorders, including schizophrenia, major depression, bipolar disorder, various dementias, including vascular dementia and other neurodegenerative disorders. These finding have immediate translational value, as bumetanide is an already approved drug that could be promptly used to improve cognition in patients with cognitive impairment, psychosis, or negative symptoms in the disorders cited above.

[9] = tested on: PCP treated mouse; assay: Social interaction in the PCP treated mouse; format: in vivo
[10] = tested on: 16p11.2DUP mice; assay: Novel object recognition in 16p11.2 duplication mouse model; format: in vivo; settings: 0.1 mg/kg, ip, p<0.001
Excerpt: as §1

SMILES | GABAA reversal potential in layer 2/3 and layer 5 of ILC [1] | Y maze performance [2] | Performance in the novel object recognition task ([3]; PCP-treated mice, oral administration of a single dose (FIG. 7)) | Novel Object Recognition test (rescue of scPCP-induced deficits) ([3]; female C57BL/6J mice, single dose IP, p<0.01) | Discrimination index, novel object recognition (rescue of scPCP-induced NOR deficit) ([3]; 0.1 mg/kg, ip) | Discrimination index, novel object recognition (rescue of scPCP-induced NOR deficit) ([3]; 0.3 mg/ml, icy) | NOR performance ([4]; CaMK2A+/- mice, 0.1 mg/kg, ip, p<0.001) | Discrimination index, rescue of NOR deficit, single agent at the dose used in the combination [4] | Development of cognitive impairment [5] | Memory deficit [6] | Y maze performance [7] | PCP-induced increase in locomotor activity ([8]; PCP 10 mg/kg) | Amphetamine-induced increase in locomotor activity ([8]; amphetamine 2.5 mg/kg) | Social interaction [9] | NOR performance [10]
CCCCNc1cc(C(=O)O)cc(S(N)(=O)=O)c1Oc1ccccc1 [bumetanide] | normalizes | completely rescued | completely rescues | significantly rescued | completely rescues | completely rescues | completely rescued | sub-effective | prevented | significantly rescued | completely rescued | significantly blocked | significantly blocked | effective | completely rescued
Cc1nc2n(c(=O)c1CCN1CCC(c3noc4cc(F)ccc34)CC1)CCCC2 [risperidone] | – | – | – | – | – | – | – | ineffective | – | – | – | – | – | – | –
